We go through 41 compounds from US20090221559A1 (priority 2005, published 2009).

The target in assay [1] is T1, HCV NS5B polymerase (His-tagged, C-terminal 21 amino acid deleted NS5B, HC-J4) (Hepatitis C virus genotype 1b, UniProt O92972).
T1 construct: The cDNA encoding NS5B amino acid 1-570 (HC-J4, genotype 1b); His tag (His6, from pET-21b) (C); made in house; host or cells: E. coli BL21 (DE3)
Description: NS5b polymerase assay (biochemical RdRp assay, 3H-GTP incorporation, SPA beads). Details: species or system HCV genotype 1b. The gist of the method:
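3H-GTP incorporation into newly made RNA was captured on SPA beads added in EDTA after 2 h at 25 °C. Compounds in DMSO met preformed enzyme–template complex (200 nM truncated His-NS5B, HC-J4 1b; biotin-oligo(rG13)/poly(rC)) for 15 min at RT, then 600 nM GTP, 5 mM MgCl2, Tris pH 7.5 started polymerization.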

In assay [2] the test system is HCV replicon RNA replication in Huh-7 luc/neo (Huh-Luc) cells. Description: HCV replicon assay (stable replicon cell reporter assay, luciferase read-out). It is filed as cell-based, HCV type 1b. The method, boiled down:
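Three-day compound exposure used Huh-Luc cells, which harbour an autonomously replicating genotype 1b NS3-NS5B replicon expressing luciferase and neo^R. Luciferase signal served as the replication read-out, and dose-response curves came from several concentrations per compound.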

Where [3] appears, read: NS5B Polymerase Assay IC50 (μM).
The mark [4] stands for this setting: Hepatitis C virus, Huh-7, 72 h, read-out: Replicon Assay EC50 (μM), Huh-Luc cells, incubation of three days, luciferase activity.
[5] abbreviates: NS5B Polymerase Assay IC50, 200 nM enzyme, 3H-GTP incorporation, 2 h at 25° C.
[6] abbreviates: Hepatitis C virus, Huh-7, 72 h, read-out: Replicon Assay EC50, Huh-Luc cells, three days incubation, luciferase activity.
The mark [7] stands for this setting: 200 nM enzyme, 3H-GTP incorporation, 2 h at 25° C., read-out: NS5B Polymerase Assay IC50.
Setting [8] is: Huh-Luc cells, three days incubation, luciferase activity, read-out: Replicon Assay EC50.
The mark [9] stands for this setting: read-out: Replicon Assay EC50, Huh-Luc cells, three days incubation, luciferase activity.

Where two headings read alike, the source gives them in different places. Some results are limits rather than exact numbers.

T1 sequence (O92972 2417-3000, looked up, stated change not applied): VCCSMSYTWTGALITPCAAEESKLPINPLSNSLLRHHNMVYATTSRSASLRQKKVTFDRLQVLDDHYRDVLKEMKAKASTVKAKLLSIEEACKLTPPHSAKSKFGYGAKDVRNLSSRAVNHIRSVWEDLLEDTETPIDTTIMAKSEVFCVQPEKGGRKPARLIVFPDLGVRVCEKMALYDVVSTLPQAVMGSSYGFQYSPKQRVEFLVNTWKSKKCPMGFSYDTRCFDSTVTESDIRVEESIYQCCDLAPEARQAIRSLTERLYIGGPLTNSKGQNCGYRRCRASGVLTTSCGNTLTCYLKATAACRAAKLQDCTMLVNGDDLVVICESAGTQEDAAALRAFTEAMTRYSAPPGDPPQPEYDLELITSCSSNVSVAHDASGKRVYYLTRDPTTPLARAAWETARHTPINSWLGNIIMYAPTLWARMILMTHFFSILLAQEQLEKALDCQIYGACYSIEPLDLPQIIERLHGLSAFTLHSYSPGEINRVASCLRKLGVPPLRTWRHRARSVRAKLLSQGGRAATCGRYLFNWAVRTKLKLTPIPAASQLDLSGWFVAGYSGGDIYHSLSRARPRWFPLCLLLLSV

A word on the IC50: it is the concentration needed to halve the response being measured. One may read the EC50 as the concentration giving half of the maximal effect. For the compound `COc1ccc(C2CC(=O)C3=C(C2)Nc2ccccc2NC3c2ccc(OCc3ccccc3)c(OC)c2)cc1OC` (stereo not shown) [compound 405], the IC50 in assay [1] (setting [3]) is over 42.7 µM. In addition, the concentration for a half-maximal effect (EC50) in assay [2] (setting [4]) turned out to be 5.34 µM.
`CC(=O)N1c2ccccc2NC2=C(C(=O)CC(C)(C)C2)C1c1c(F)cccc1Cl` (stereo not shown) [compound 24] came in with an IC50 in assay [1] (setting [5]) of over 42.7 µM. The EC50 in assay [2] (setting [6]) is 13 µM.
With `CC1(C)CC(=O)C2=C(C1)Nc1ccccc1N(C(=O)C(F)(F)F)C2c1cccc(Cl)c1Cl` (stereo not shown) [compound 25], the IC50 in assay [1] (setting [5]) was over 42.7 µM. The EC50 in assay [2] (setting [6]) turned out to be 24.6 µM.
The like results for `COc1ccc(C2C3=C(CC(C)(C)CC3=O)Nc3ccccc3N2C(=O)C(F)(F)F)cc1` (stereo not shown) [compound 110] were, in that order, over 42.7 µM and 8.11 µM.
On the same counts, the results for `CC1(C)CC(=O)C2=C(C1)Nc1ccccc1N(C(=O)C(F)(F)F)C2c1ccccc1Cl` (stereo not shown) [compound 87] are over 42.7 µM and over 32 µM.
As for `O=C1CC(c2ccco2)CC2=C1C(c1cccc([N+](=O)[O-])c1)N(C(=O)c1ccccc1)c1ccccc1N2` (stereo not shown) [compound 286], the IC50 in assay [1] (setting [7]) is over 42.7 µM. In addition, the EC50 in assay [2] (setting [8]) is 19.2 µM.
As to `O=C1CC(c2ccccc2OCc2ccccc2)CC2=C1C(c1cccc(OCc3ccccc3)c1)Nc1ccccc1N2` (single isomer, unassigned) [compound 418, 3-(2-Benzyloxyphenyl)-11-(3-benzyloxyphenyl)-2,3,4,5,10,11-hexahydro-dibenzo[b,e][1,4]diazepin-1-one], in assay [1] (read-out: NS5B Polymerase Assay IC50), the IC50 is over 42.7 µM. The half-maximal effective concentration (EC50) in assay [2] (read-out: Replicon Assay EC50, Huh-Luc cells, incubation of three days, luciferase activity) was found to be 2.16 µM.
`CC(=O)N1c2ccccc2NC2=C(C(=O)CC(C)(C)C2)C1c1cccc(Oc2ccccc2Br)c1` (stereo not shown) [compound 149, 10-acetyl-11-[3-(2-bromophenoxy)phenyl]-3,3-dimethyl-2,3,4,5,10,11-hexahydro-1H-dibenzo[b,e][1,4]diazepin-1-one] had an IC50 in assay [1] (setting [5]) of 30.4 µM. For the same compound, the EC50 in assay [2] (setting [6]) turned out to be 1.78 µM.
`CC(=O)N1c2ccccc2NC2=C(C(=O)CCC2)C1c1ccc(Cl)cc1Cl` (stereo not shown) [compound 291, 10-Acetyl-11-(2,4-dichlorophenyl)-2,3,4,5,10,11-hexahydro-1H-dibenzo[b,e][1,4]-diazepin-1-one] returned an IC50 in assay [1] (setting [5]) of over 42.7 µM. In assay [2] (setting [6]), the EC50 was over 32 µM.
Regarding `CCC(=O)N1c2ccccc2NC2=C(C(=O)CC(c3ccc(OC)c(OC)c3)C2)C1c1cccc(Cl)c1` (mixture of isomers) [compound 193], in assay [1] (setting [7]), the concentration for half-maximal inhibition (IC50) is over 33.3 µM. Besides, in assay [2] (setting [8]), the EC50 is 5.92 µM.
Consider `CCCCOc1cccc(C2C3=C(CC(C)(C)CC3=O)Nc3ccccc3N2C(C)=O)c1` (stereo not shown) [compound 79], for which, in assay [1] (setting [5]), the IC50 was over 42.7 µM. Besides, in assay [2] (setting [6]), the EC50 came to 31.3 µM.
As to `COc1ccc(C2CC(=O)C3=C(C2)Nc2ccccc2NC3c2ccc(OCc3ccccc3)c(OC)c2)cc1` (stereo not shown) [compound 385], the IC50 in assay [1] (setting [3]) is over 42.7 µM. Also, the EC50 in assay [2] (setting [4]) amounted to 3.54 µM.
In turn, `CCN(CC)c1ccc(C2C3=C(CC(C)(C)CC3=O)Nc3ccccc3N2C(=O)C(F)(F)F)cc1` (stereo not shown) [compound 109] registered an IC50 in assay [1] (setting [5]) of over 42.7 µM. For the same compound, the EC50 in assay [2] (setting [6]) was over 32 µM.
With `Cc1ccc(C2C3=C(CC(c4cccc([N+](=O)[O-])c4)CC3=O)Nc3ccccc3N2C(=O)c2ccccc2)cc1` (mixture of isomers) [compound 212], the 50% inhibitory concentration (IC50) in assay [1] (setting [7]) is over 42.7 µM. In assay [2] (setting [8]), the EC50 is 23.9 µM.
`CCC(=O)N1c2ccccc2NC2=C(C(=O)CC(C)(C)C2)C1c1cc(OC)ccc1OC` (stereo not shown) [compound 60] came in with an IC50 in assay [1] (setting [5]) of over 42.7 µM. In assay [2] (setting [6]), the EC50 is 17.9 µM.
With `CCC(=O)N1c2ccccc2NC2=C(C(=O)CC(c3ccco3)C2)C1c1cccc([N+](=O)[O-])c1` (stereo not shown) [compound 288], in assay [1] (setting [7]), the IC50 was over 42.7 µM. The EC50 in assay [2] (setting [8]) worked out at 25 µM.
As for `CSc1ccc(C2Nc3ccccc3NC3=C2C(=O)CC(c2ccc(Cl)cc2)C3)cc1` (stereo not shown) [compound 382], in assay [1] (setting [3]), the IC50 is over 42.7 µM. In addition, in assay [2] (setting [4]), the EC50 stood at 16.7 µM.
Compound `CC(=O)N1c2ccccc2NC2=C(C(=O)CC(C)(C)C2)C1c1ccc(N(C)C)cc1` (stereo not shown) [compound 122] registered an IC50 in assay [1] (setting [5]) of over 42.7 µM. Besides, the EC50 in assay [2] (setting [6]) is over 32 µM.
The like results for `COc1ccc(C2C3=C(CC(C)(C)CC3=O)Nc3ccccc3N2C(=O)Cc2ccc(Cl)cc2)cc1` (stereo not shown) [compound 12] were, in that order, over 42.7 µM and 3.11 µM.
Compound `CCCOc1ccc(C2Nc3ccccc3NC3=C2C(=O)CC(c2ccc(OC)cc2)C3)cc1OC` (stereo not shown) [compound 394] returned an IC50 in assay [1] (setting [3]) of over 42.7 µM. Besides, the EC50 in assay [2] (setting [4]) was found to be 14.1 µM.
On the same counts, the results for `COc1ccc(C2CC(=O)C3=C(C2)Nc2ccccc2NC3c2cccc(OCc3ccccc3)c2)cc1` (stereo not shown) [compound 326] are over 33.3 µM and 4.69 µM.
On the same counts, the results for `Cc1ccc(C2CC(=O)C3=C(C2)Nc2ccccc2NC3c2ccccc2)cc1` (stereo not shown) [compound 414] are over 33.3 µM and 13.6 µM.
Regarding `CC(=O)N1c2ccccc2NC2=C(C(=O)CC(c3ccccc3OCc3ccccc3)C2)C1c1ccc(Cl)cc1Cl` (single isomer, unassigned) [compound 186, 10-Acetyl-3-(2-benzyloxyphenyl)-11-(2,4-dichlorophenyl)-2,3,4,5,10,11-hexahydro-dibenzo[b,e][1,4]diazepin-1-one], the IC50 in assay [1] (setting [5]) stood at 40.9 µM. Moreover, the EC50 in assay [2] (setting [6]) is 2.03 µM.
On the same counts, the results for `CC1(C)CC(=O)C2=C(C1)Nc1ccccc1N(C(=O)C1CC1)C2c1cccs1` (stereo not shown) [compound 252] are over 42.7 µM and 4.76 µM.
`CC1(C)CC(=O)C2=C(C1)Nc1ccccc1NC2c1cccnc1` (stereo not shown) [compound 499] came in with a concentration for half-maximal inhibition (IC50) in assay [1] (setting [3]) of over 42.7 µM. Besides, the EC50 in assay [2] (setting [4]) was over 32 µM.
As for `CCCCCC(=O)N1c2ccccc2NC2=C(C(=O)CC(c3ccc(OC)c(OC)c3)C2)C1c1ccc(Cl)cc1` (mixture of isomers) [compound 185], the IC50 in assay [1] (setting [7]) is over 33.3 µM. Moreover, the EC50 in assay [2] (setting [8]) stood at 4.79 µM.
As to `CC1(C)CC(=O)C2=C(C1)Nc1ccccc1N(C(=O)Cc1ccc(Cl)cc1)C2c1cccnc1` (stereo not shown) [compound 247], the IC50 in assay [1] (setting [5]) was over 33.3 µM. Also, the EC50 in assay [2] (setting [6]) is 17.3 µM.
The like results for `COc1ccc(C2C3=C(CC(C)(C)CC3=O)Nc3ccccc3N2C(=O)c2ccc(F)cc2)cc1` (stereo not shown) [compound 33] were, in that order, over 42.6 µM and 24.7 µM.
On to `CCN(CC)c1ccc(C2Nc3ccccc3NC3=C2C(=O)CC(c2ccc(OC)cc2)C3)cc1` (stereo not shown) [compound 363], for which the IC50 in assay [1] (setting [3]) is over 42.7 µM. For the same compound, the 50% effective concentration (EC50) in assay [2] (setting [4]) amounted to 25.8 µM.
For `Cc1cc2c(cc1C)NC(c1c(F)cccc1F)C1=C(CC(C)(C)CC1=O)N2` (stereo not shown) [compound 454], the IC50 in assay [1] (setting [3]) is over 42.7 µM. For the same compound, in assay [2] (setting [4]), the EC50 amounted to 3.44 µM.
As to `CC1(C)CC(=O)C2=C(C1)Nc1ccccc1N(C(=O)Cc1ccccc1)C2c1ccc(Cl)cc1` (stereo not shown) [compound 20], the IC50 in assay [1] (setting [5]) was over 42.6 µM. In assay [2] (setting [6]), the EC50 worked out at 6.58 µM.
For the compound `CCCCOc1ccc(C2CC(=O)C3=C(C2)Nc2ccccc2N(C(=O)CC)C3c2ccccc2)cc1` (mixture of isomers) [compound 217], in assay [1] (setting [7]), the IC50 was over 42.7 µM. For the same compound, the EC50 in assay [2] (setting [8]) was 20.3 µM.
`CC(=O)N1c2ccccc2NC2=C(C(=O)CC(C)(C)C2)C1c1cccc(Cl)c1` (stereo not shown) [compound 126]: the IC50 in assay [1] (setting [5]) is over 42.7 µM. In addition, the EC50 in assay [2] (setting [6]) is over 32 µM.
The like results for `CC1(C)CC(=O)C2=C(C1)Nc1ccccc1N(C(=O)Cc1ccccc1)C2c1c(F)cccc1Cl` (stereo not shown) [compound 69] were, in that order, over 42.7 µM and 4.58 µM.
On the same counts, the results for `CC(C)CC(=O)N1c2ccccc2NC2=C(C(=O)CC(C)(C)C2)C1c1ccc(Cl)c(Cl)c1` (stereo not shown) [compound 78] are over 33.3 µM and 22.2 µM.
With `CCCOc1ccccc1C1CC(=O)C2=C(C1)Nc1ccccc1N(C(=O)CC)C2c1ccc(OC)cc1` (stereo not shown) [compound 220], the IC50 in assay [1] (setting [7]) was over 42.7 µM. Further, in assay [2] (setting [8]), the EC50 came to 3.08 µM.
As for `CC1(C)CC(=O)C2=C(C1)Nc1ccccc1NC2c1ccc(OCc2ccccc2)cc1OCc1ccccc1` (stereo not shown) [compound 445, 11-[2,4-dibenzyloxyphenyl]-3,3-dimethyl-2,3,4,5,10,11-hexahydro-1H-dibenzo[b,e][1,4]diazepin-1-one], the IC50 in assay [1] (setting [3]) is over 133 µM. The 50% effective concentration (EC50) in assay [2] (setting [4]) worked out at 1.98 µM.
Regarding `CCCCOc1ccc(C2C3=C(CC(C)(C)CC3=O)Nc3ccccc3N2C(C)=O)cc1` (stereo not shown) [compound 127], the IC50 in assay [1] (setting [5]) is over 42.7 µM. For the same compound, the EC50 in assay [2] (setting [6]) came to 11.5 µM.
For the compound `CC(=O)N1c2ccccc2NC2=C(C(=O)CC(C)(C)C2)C1c1ccc(Cl)cc1Cl` (single isomer, unassigned) [compound 35, 10-Acetyl-11-(2,4-dichlorophenyl)-2,3,4,5,10,11-hexahydro-3,3-dimethyl-1H-dibenzo[b,e][1,4]diazepin-1-one], in assay [1] (setting [5]), half-maximal inhibition (IC50) was put at 1.28 µM. Also, the EC50 in assay [2] (setting [9]) came to 20.5 µM.
On the same counts, the results for `CC(=O)N1c2ccccc2NC2=C(C(=O)CC(c3ccccc3OCc3ccccc3)C2)C1c1cccc(OCc2ccccc2)c1` (single isomer, unassigned) [compound 189] are over 42.7 µM and 3.99 µM.
Take `O=C1C[C@@H](c2ccccc2)CC2=C1[C@H](c1coc3ccccc3c1=O)Nc1ccccc1N2` [compound 488]: the IC50 in assay [1] (setting [3]) was over 42.7 µM. Besides, the EC50 in assay [2] (setting [4]) was determined as 17.8 µM.
